Laboratory results as given in patent US10463669B2, “Composition for treating or preventing liver cancer” (Seoul National University R&DB Foundation, priority 2016, dated 2019).

Key:
[1] = tested on: PI3K isotype p110δ expression in HCC cells; conditions: HCC cells after treatment with H2O2
Description: (§1) Medium was exchanged every day, and the aforementioned cells were cultured for 4 days in 300 μmol/L hydrogen peroxide (H2O2) (Sigma Aldrich; H1009). In several experiments, the cells were treated for 1 hour with 5 mmol/L N-acetylcysteine (NAC) (Sigma Aldrich; A7250), 25 μmol/L idelalisib (LC Laboratoties, Woburn, Mass., USA; I-7447), 25 μmol/L perifosine (LC Laboratoties, Woburn, Mass., USA; P-6522), or 30 μmol/L GSK3β inhibitor (GSK3β inhibitor XI) (Santa Cruz; sc-204770) (31) before adding H2O2. Furthermore, sterilized distilled water (pH 7.0) was used as a negative control (i.e., mock treatment).
PCR was carried out by using TOPrealm qPCR 2×PreMIX (SYBR Green with high ROX) (Enzynomics, Daejeon, Korea; RT501M) and ABI Prism 7300 thermal cycler (Applied Biosystems, Foster City, Calif., USA). […] To examine the primer specificity, a dissociation step was additionally included.

[2] = tested on: telomere length in HCC cell lines (Huh7 and Hep3B); test: Telomere length (Southern blot, immunoFISH, Flow FISH, quantitative PCR); format: cell-based, human
Description: Volume of the hybridization buffer was adjusted to 100 μl per 10^5 cells. Next, each sample was cultured for 10 minutes in a water bath at 85° C. […] Total 15,000 to 20,000 nuclei were analyzed for the each separate culture. Telomere fluorescence intensity of the all nuclei at […] phase of the cell cycle was measured by using BD FACS Calibur flow cytometer (Becton Dickinson, Franklin Lakes, N.J., USA) in which CELLQUEST software is used. The established ImmunoFISH protocol (Plentz R R, et al., Hepatology. 2007; 45: 968-76) was used with slight modifications. The paraffin-embedded section was subjected to de-paraffinization using xylene, and then rehydrated using ethanol gradient. Antigen retrieval was carried out by boiling in 100 mmol/L sodium citrate (pH 6.0) for 10 minutes in a microwave. After permeation of proteinase K (15 μg/mL in PBS [pH 7.4]) for 20 minutes at 37° C., 8-oxo-dG-specific antibody (1:100, Abcam, Cambridge, Mass., USA; ab62623) was subjected to 1% BSA dilution in PBS 0.1% Triton X-100 and cultured overnight at room temperature. After washing, the slide was treated with Alexa 647 secondary antibody for 1 hour. […] After denaturation for 6 minutes at 90° C., the sample was hybridized for 2 hours at dark place. […] After washing, the slide was rinsed with PBS containing DAPI, and then sealed with a DAPI sealing agent (mounting medium) (Vector Laboratories, Burlingame, Calif., USA). Simultaneously, the inventors of the present invention carried out centromere staining as an internal control for telomere staining and 8-oxo-dG staining. […] For quantification of the telomere fluorescence intensity, centromere fluorescence intensity, and 8-oxo-dG fluorescence intensity, the same exposure time was employed. The telomere fluorescence level and 8-oxo-dG fluorescence level of tumor tissues were calculated by division of the fluorescence level in non-tumor tissues corresponding to 5 random fields. The image analysis was carried out by using Image-Pro plus 6.0 software (Media Cybernetics, Inc., Rockville, Md., USA). Telomere length was determined by using the non-radioactive chemical fluorescence TeloTAGGG telomere length assay (Roche; Cat. No. 12 209 136 001) according to the manual. Genomic DNA was separated from HCC cells using GeneJET Genomic DNA Purification Kit (Thermo Scientific; #K0721), and then 4 μg of the genomic DNA was digested for 16 hours at 37° C. with 20 units of […] digested DNA was subjected to 0.8% agarose gel electrophoresis, and then transferred to a positively charged nylon membrane using capillary transfer. The blotted DNA was hybridized for 16 hours at 42° C. with a digoxigenin (DIG)-labeled probe that is specific to the telomere repeat. After that, it was cultured for 30 minutes at room temperature with DIG-specific antibody conjugated to an alkaline phosphatase Based on quantitative PCR analysis using the genomic DNA extracted from cells, relative telomere repeat copy number (T) and single copy number (S) were determined, and the calculation was made like previous method in which T/S ratio is continuously modified (Cawthon R M. Telomere length measurement by a novel monochrome multiplex quantitative PCR method. Nucleic Acids Res. 2009; 37: e21).

[3] = tested on: AKT phosphorylation in THLE-3 cells; test: AKT phosphorylation, immunoblot assay; format: cell-based, human
Description: as §1
Total 2×10^5 cells were boiled for 5 minutes in 2×SDS sample buffer (100 mmol/L TrisHCl [pH 6.8], 4% SDS, 0.2% bromophenol blue, 20% glycerol, and 200 mmol/L β-mercaptoethanol), and then subjected to SDS-PAGE and Western blotting. To detect the TERT, the cells were cultured in 2×SDS sample buffer for 15 minutes at 55° C. TERT-specific (1:300, Rockland Immunochemicals, Gilbertsville, Pa., USA; 600-401-252), AKT-specific (1:1000, Cell Signaling Technology; #9272), phospho-AKT-specific (1:2000, Cell Signaling Technology; #4060), GAPDH-specific (1:2000, Santa Cruz Biotechnology; sc-47724), or β-actin-specific (1:2000, Sigma-Aldrich, St. Louis, Mo., USA; A5441) antibody was diluted in 5% skim milk or bovine serum albumin with TBS-Tween 20, cultured overnight at 4° C., washed, and cultured with HRP-conjugated secondary antibody (1:1000, Abcam; ab131368, or ab131366). By using FUSION-SOLO imager (Vilber Lourmat, Marne La Vallee, France), a chemical fluorescence image was obtained.

[4] = tested on: Huh7 cells injected to subcutaneous tissues; test: In vivo tumorigenicity analysis (xenograft of pre-treated cells); design: species or system KSN/Slc nude mouse
Description: The animal test was carried out according to the protocol which has been approved by Seoul National University Institutional Animal Care and Use Committee (Approval number: SNU-130225-6). The mouse was kept under usual conditions (i.e., semi-specific pathogen-free state), and allowed to have free access to food and water. For all xenografting studies, 5-week old KSN/Slc nude mouse was used. A mouse with bodyweight of 18 g to 20 g was used for the test. For the xenografting analysis, mock-treated 1×10^5 Huh7, 1×10^5 Huh7 treated only with 300 μmol/L H2O2, and 1×10^5 Huh7 treated with both of 25 μmol/L idelalisib and 300 μmol/L H2O2 were washed, harvested in PBS not containing Ca^2+ or Mg^2+, and subsequently injected in an amount of 0.2 mL to subcutaneous tissues. According to caliper measurement of two vertical diameters of a tumor (i.e., D1 as largest diameter and D2 as smallest diameter), the tumor product was monitored every week. The tumor volume was calculated by […].
Next, an examination was made to see whether or not idelalisib can have in vivo inhibition of tumor growth.

| SMILES | p110δ expression (only isotype among p110α, p110β, p110δ, p110γ) [1] | telomere length increased by ([2]; HCC cells treated with 300 μmol/L H2O2, compared to control HCC cells not exposed to H2O2) | AKT phosphorylation level ([3]; THLE-3 cells after H2O2 treatment) | latency time till tumor development ([4]; nude mouse injected with 1×10^5 HCC cells treated with H2O2) | telomere length reduced by ([2]; 300 μmol/L H2O2-treated HCC cells plus idelalisib, compared to HCC cells treated with H2O2 only) | ROS-mediated increase in telomere length ([2]; H2O2-treated cells) | telomere length ([2]; HCC cells, no H2O2) | basal level AKT phosphorylation ([3]; THLE-3, idelalisib at a concentration of 25 μmol/L) | time without tumor formation ([4]; nude mouse injected with HCC cells treated with both 300 μmol/L H2O2 and 25 μmol/L idelalisib) |
| --- | --- | --- | --- | --- | --- | --- | --- | --- | --- |
| OO [H2O2, hydrogen peroxide] | increased | 25%-30% | no change | 28 days |  |  |  |  |  |
| CC[C@H](Nc1ncnc2nc[nH]c12)c1nc2cccc(F)c2c(=O)n1-c1ccccc1 [idelalisib, 5-fluoro-3-phenyl-2-[(1S)-1-(7H-purin-6-ylamino)propyl]-4(3H)-quinazolinone] |  |  |  |  | 40-45% | almost completely inhibited | reduced | not reduced | > 70 days |
